Measurements as given in patent US20240270701A1, “BETA ADRENERGIC AGONIST AND METHODS OF USING THE SAME” (Curasen Therapeutics, Inc., priority 2021, published 2024).
Read-outs that look alike come from different tables or passages of the source.

Assays:
[1] = target: T1, B1-AR (Homo sapiens, UniProt P08588); experiment: cAMP Gs dynamic HTRF assay, cells expressing beta-adrenergic receptor (CHO-K1), B1-AR; type: cell-based; conditions: for EC50: cAMP HTRF, read-out: pEC50 [B1-AR] (converted); for Emax: relative to full agonist isoproterenol, read-out: Emax (% iso) (%) [B1-AR]
T1 construct: expressed in transfected cells; host or cells: CHO-K1
Method: (§1) cAMP homogeneous time-resolved fluorescence (HTRF): experimental methods. Compound efficacy is determined using the cAMP Gs dynamic HTRF assay (Cisbio, catalog #62AM4PEC) largely following the manufacturer's instructions, also detailed below.
(§2) Standard serial dilution curves are 10-point, 5-fold dilutions starting from a highest concentration of 10 μM. Controls present on every assay plate are 0.1% DMSO (vehicle control), 1 μM isoproterenol (full beta-adrenergic agonist control) and […] xamoterol (partial beta-adrenergic agonist control). […] Assay plates are centrifuged at 500×g for 10 seconds. Compounds and IBMX are prepared at 2× final dose to compensate for addition of cells.
(§3) Cell preparation: 1× stimulation buffer, washing PBS (Dulbecco's phosphate-buffered saline, − Mg − Ca; Caisson Labs, catalog #PBL01), assay PBS (Dulbecco's phosphate-buffered saline, + Mg, + Ca; Caisson Labs, catalog #PBL02) and Versene (0.02% EDTA disodium salt solution in PBS without calcium or magnesium; Caisson Labs, catalog #EDL01) are pre-warmed to 37° C. Cells expressing beta-adrenergic receptor were washed in washing PBS to remove growth medium and then released from the surface by incubating with Versene for 5-10 minutes at 37° C. Cells are harvested using assay PBS, counted manually by hemocytometer or by an automated cell counter, pelleted by centrifugation (200×g, 5 minutes) and resuspended in 37° C. 1× stimulation buffer to a final density of 1.5×10^6 cells/mL. 5 μL of the suspended cell solution (7500 cell total) are added to all wells of the 384 well assay plate, the assay plate was covered with an Axygen® plate seal (Corning PCR-SP) and incubated in a humidified 37° C. environment supplemented with 5% CO2 for 30 minutes.
(§4) HTRF reagent addition, reading and data analysis: After 30 minutes of cell stimulation with test compound, the assay plates are centrifuged at 500×g for 10 seconds, and incubation was stopped with the addition of 5 μL cAMP-D2 acceptor, diluted 1:21 in detection and lysis buffer 2 (Cisbio 62CL2FDF) was added to all cells. Subsequently, 5 μL Anti-cAMP-Eu Donor, diluted 1:21 in detection and lysis buffer 2, was added to cells. Plates were sealed and reactions gently ‘vortexed’ at 900 rpm on a Heidolph Titramax 1000 for at least 30 minutes at room temperature. Plates are centrifuged again at 500×g for 10 seconds, and HTRF was measured using a Tecan Spark plate reader at 50 flashes per well. […] Potency estimates (EC50 and pEC50) are derived from the four-parameter nonlinear regression of the concentration-effect curve and an estimate of relative efficacy is determined by comparing the magnitude of the test compound HTRF signal window (min−max dose) with the signal window of the full agonist control, isoproterenol.

[2] = target: T2, B2-AR (Homo sapiens, UniProt P07550); experiment: cAMP Gs dynamic HTRF assay, cells expressing beta-adrenergic receptor (CHO-K1), B2-AR; type: cell-based; conditions: for Emax: relative to full agonist isoproterenol, read-out: Emax (% iso) (%) [B2-AR]; for EC50: cAMP HTRF, read-out: pEC50 [B2-AR] (converted)
T2 construct: expressed in transfected cells; host or cells: CHO-K1
Method: as §1, §2, §3, §4

T2 sequence (P07550 whole entry, species assumed): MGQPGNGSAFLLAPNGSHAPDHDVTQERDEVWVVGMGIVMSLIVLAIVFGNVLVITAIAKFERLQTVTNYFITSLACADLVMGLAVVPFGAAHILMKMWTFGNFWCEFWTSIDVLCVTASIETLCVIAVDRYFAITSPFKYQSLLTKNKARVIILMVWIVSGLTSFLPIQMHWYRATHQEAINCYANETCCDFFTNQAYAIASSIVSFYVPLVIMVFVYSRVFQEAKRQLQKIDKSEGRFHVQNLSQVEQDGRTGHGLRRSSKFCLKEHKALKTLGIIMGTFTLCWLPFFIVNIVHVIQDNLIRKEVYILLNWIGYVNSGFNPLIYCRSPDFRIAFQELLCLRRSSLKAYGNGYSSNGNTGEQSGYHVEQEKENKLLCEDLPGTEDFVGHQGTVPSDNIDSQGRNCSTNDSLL
T1 sequence (P08588 whole entry, species assumed): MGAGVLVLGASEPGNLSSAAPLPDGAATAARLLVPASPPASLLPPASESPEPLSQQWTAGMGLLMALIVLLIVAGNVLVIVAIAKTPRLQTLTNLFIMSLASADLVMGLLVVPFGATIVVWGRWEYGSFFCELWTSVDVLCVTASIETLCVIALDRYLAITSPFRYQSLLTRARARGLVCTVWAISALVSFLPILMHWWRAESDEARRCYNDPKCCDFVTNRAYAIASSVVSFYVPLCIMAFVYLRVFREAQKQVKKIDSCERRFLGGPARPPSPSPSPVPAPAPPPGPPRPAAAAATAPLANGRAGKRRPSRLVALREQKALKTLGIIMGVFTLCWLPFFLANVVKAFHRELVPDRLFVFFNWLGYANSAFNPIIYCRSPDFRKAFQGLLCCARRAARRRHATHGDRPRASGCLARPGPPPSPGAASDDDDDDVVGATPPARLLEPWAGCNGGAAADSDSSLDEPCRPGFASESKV

Structure (SMILES) | EC50 [1] | Emax [1] | Emax ([2]; CHO-K1, CHO-K1 cells) | EC50 ([2]; CHO-K1 cells) | Emax ([2]; CHO-K1 cells)
CC(C)(C)NC[C@H](O)c1cc(C2CC2)cc2[nH]ncc12 [I-103] | > 1000 nM | 50 to 70% | 50 to 70% | 10 to 100 nM | –
CC(C)(C)NC[C@H](O)c1cc(C(F)F)cc2[nH]ncc12 [I-123] | > 1000 nM | 70 to 90% | 70 to 90% | 100 to 1000 nM | –
CCC(C)(CC)NC[C@H](O)c1cccc2[nH]ncc12 [I-23] | < 10 nM | > 90% | – | < 10 nM | > 90%
CCC(C)(C)NC[C@H](O)c1cccnc1C [I-165] | 100 to 1000 nM | 70 to 90% | 70 to 90% | 100 to 1000 nM | –
Cc1ncccc1[C@@H](O)CNC1CC(F)(F)C1 [I-181] | > 1000 nM | < 50% | – | > 1000 nM | 50 to 70%
C[C@H](NC[C@H](O)c1ccc(F)c2[nH]ncc12)C(C)(C)C [I-14] | 100 to 1000 nM | 70 to 90% | 50 to 70% | < 10 nM | –
Cc1ncccc1[C@@H](O)CNC1(C)CC1 [I-188] | 100 to 1000 nM | > 90% | > 90% | 10 to 100 nM | –
CC(C)(CO)NC[C@H](O)c1cc(C#N)cc2[nH]ncc12 [I-151] | 100 to 1000 nM | 70 to 90% | > 90% | 100 to 1000 nM | –
CCc1n[nH]c2cccc([C@@H](O)CNC(C)(C)C)c12 [I-172] | 100 to 1000 nM | 70 to 90% | – | 100 to 1000 nM | 50 to 70%
CC(C)(C)NC[C@H](O)c1cccc2c(F)n[nH]c12 [I-85] | 100 to 1000 nM | 70 to 90% | 50 to 70% | 100 to 1000 nM | –
Cc1cc([C@@H](O)CNC2CCC2)c2cn[nH]c2c1 [I-136] | < 10 nM | > 90% | > 90% | < 10 nM | –
CC(C)(NC[C@H](O)c1cc(C#N)cc2[nH]ncc12)C1CC1 [I-1] | 100 to 1000 nM | > 90% | – | 10 to 100 nM | > 90%
CC(C)(C)C(C)(C)NC[C@H](O)c1ccc(F)c2[nH]ncc12 [I-8] | > 1000 nM | 70 to 90% | – | < 10 nM | > 90%
Cc1n[nH]c2cccc([C@@H](O)CNC3CCC3)c12 [I-166] | 100 to 1000 nM | 50 to 70% | – | 10 to 100 nM | 70 to 90%
CC(C)CNC[C@H](O)c1ccc(Cl)c2[nH]ncc12 [I-117] | 10 to 100 nM | 50 to 70% | – | 10 to 100 nM | 70 to 90%
Cc1ncccc1[C@@H](O)CNCC(C)C [I-183] | > 1000 nM | < 50% | 50 to 70% | > 1000 nM | –
CC(C)(C)NC[C@H](O)c1ccc(N)nn1 [I-142] | 10 to 100 nM | > 90% | > 90% | 10 to 100 nM | –
CC(C)(C)CNC[C@H](O)c1cc(C#N)cc2[nH]ncc12 [I-69] | > 1000 nM | 50 to 70% | 70 to 90% | 100 to 1000 nM | –
CCC(C)(C)NC[C@H](O)c1cccc2[nH]nc(C)c12 [I-54] | 100 to 1000 nM | 70 to 90% | – | 10 to 100 nM | 70 to 90%
Cn1ncc2c([C@@H](O)CNC(C)(C)C)ccc(F)c21 [I-56] | 10 to 100 nM | 50 to 70% | – | < 10 nM | 50 to 70%
N#Cc1cc([C@@H](O)CNC2CCC2)c2cn[nH]c2c1 [I-152] | 10 to 100 nM | 70 to 90% | – | 10 to 100 nM | > 90%
C[C@H](NC[C@H](O)c1cccc2[nH]ncc12)C1CC1 [I-11] | < 10 nM | > 90% | > 90% | < 10 nM | –
Cc1ncccc1[C@@H](O)CNC(C)(C)CO [I-176] | > 1000 nM | 50 to 70% | 70 to 90% | 100 to 1000 nM | –
CC(C)(C)NC[C@H](O)c1ccc(Cl)c2[nH]nc(F)c12 [I-189] | < 10 nM | > 90% | 70 to 90% | < 10 nM | –
